Source: ChEMBL document CHEMBL1201862, “PubChem BioAssay data set” (2004)
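Method: 48-hour compound exposure of cells in 96-well plates, five concentrations, linear interpolation of endpoints. GI50 = concentration required for 50% inhibition of growth.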 Activity calls are given as the source filed them. No stated cut-off is given here; in the data, active = GI50 up to about 1.1 µM and inactive = higher.

Tests used:
Experiment in all cases: growth of human tumour cells (NCI), 48 h
HCT-15 = tested on: HCT-15
M14 = tested on: M14
MOLT-4 = tested on: MOLT-4
HT-29 = tested on: HT-29
HL-60 = tested on: HL-60
SF-268 = tested on: SF-268
KM12 = tested on: KM12
HCC 2998 = tested on: HCC 2998
EKVX = tested on: EKVX
SF-539 = tested on: SF-539
OVCAR-4 = tested on: OVCAR-4
SW-620 = tested on: SW-620
TK-10 = tested on: TK-10
DU-145 = tested on: DU-145
SN12C = tested on: SN12C
Hs-578T = tested on: Hs-578T
COLO 205 = tested on: COLO 205
PC-3 = tested on: PC-3
NCI/ADR-RES = tested on: NCI/ADR-RES
SR = tested on: SR
SK-MEL-5 = tested on: SK-MEL-5
BT-549 = tested on: BT-549
HCT-116 = tested on: HCT-116
A498 = tested on: A498
HOP-62 = tested on: HOP-62
UACC-62 = tested on: UACC-62
SK-OV-3 = tested on: SK-OV-3
U-251 = tested on: U-251
CCRF-CEM = tested on: CCRF-CEM
ACHN = tested on: ACHN
SF-295 = tested on: SF-295
SNB-75 = tested on: SNB-75
OVCAR-5 = tested on: OVCAR-5
NCI-H23 = tested on: NCI-H23
SK-MEL-2 = tested on: SK-MEL-2
RPMI-8226 = tested on: RPMI-8226
786-0 = tested on: 786-0
NCI-H522 = tested on: NCI-H522
UACC-257 = tested on: UACC-257
NCI-H226 = tested on: NCI-H226
T47D = tested on: T47D
MDA-N = tested on: MDA-N
Malme-3M = tested on: Malme-3M
LOX IMVI = tested on: LOX IMVI
K562 = tested on: K562
RXF 393 = tested on: RXF 393
MDA-MB-435 = tested on: MDA-MB-435
A549 = tested on: A549
CAKI-1 = tested on: CAKI-1
OVCAR-8 = tested on: OVCAR-8
SNB-19 = tested on: SNB-19
MCF7 = tested on: MCF7
OVCAR-3 = tested on: OVCAR-3
UO-31 = tested on: UO-31
NCI-H460 = tested on: NCI-H460
HOP-92 = tested on: HOP-92
MDA-MB-231 = tested on: MDA-MB-231
IGROV-1 = tested on: IGROV-1
SK-MEL-28 = tested on: SK-MEL-28

## COc1ccc(/N=N/C(=O)NC(CC(C)C)C(N)=O)cc1 (stereo not given)
HCT-15
  GI50: > 24.4 µM
M14
  GI50: > 28.9 µM (inactive)
MOLT-4
  GI50: 7.74 µM (inactive)
HT-29
  GI50: > 100 µM (inactive)
HL-60
  GI50: > 100 µM (inactive)
SF-268
  GI50: > 100 µM (inactive)
KM12
  GI50: 5.27 µM (inactive)
HCC 2998
  GI50: > 31 µM (inactive)
EKVX
  GI50: > 100 µM (inactive)
SF-539
  GI50: 22.9 µM (inactive)
OVCAR-4
  GI50: > 31.6 µM (inactive)
SW-620
  GI50: > 29.2 µM (inactive)
TK-10
  GI50: > 31.6 µM (inactive)
DU-145
  GI50: 49.1 µM (inactive)
SN12C
  GI50: > 31.6 µM (inactive)
Hs-578T
  GI50: > 100 µM (inactive)
COLO 205
  GI50: 15.3 µM (inactive)
PC-3
  GI50: > 100 µM (inactive)
NCI/ADR-RES
  GI50: 55.5 µM (inactive)
SR
  GI50: 5.64 µM (inactive)
SK-MEL-5
  GI50: > 62.4 µM (inactive)
BT-549
  GI50: 47.1 µM (inactive)
HCT-116
  GI50: > 31.6 µM (inactive)
A498
  GI50: > 31.6 µM (inactive)
HOP-62
  GI50: > 100 µM (inactive)
UACC-62
  GI50: 6.92 µM (inactive)
SK-OV-3
  GI50: > 100 µM (inactive)
U-251
  GI50: > 100 µM (inactive)
CCRF-CEM
  GI50: > 27.7 µM (inactive)
ACHN
  GI50: > 31.1 µM (inactive)
SF-295
  GI50: 5.58 µM (inactive)
SNB-75
  GI50: > 100 µM (inactive)
OVCAR-5
  GI50: > 100 µM (inactive)
NCI-H23
  GI50: > 100 µM (inactive)
SK-MEL-2
  GI50: > 100 µM (inactive)
RPMI-8226
  GI50: 14.8 µM (inactive)
786-0
  GI50: > 31.6 µM (inactive)
NCI-H522
  GI50: > 100 µM (inactive)
UACC-257
  GI50: 23.6 µM (inactive)
NCI-H226
  GI50: > 94.4 µM (inactive)
T47D
  GI50: 12.2 µM (inactive)
MDA-N
  GI50: 30.2 µM (inactive)
Malme-3M
  GI50: > 100 µM (inactive)
LOX IMVI
  GI50: 9.48 µM (inactive)
K562
  GI50: 1.43 µM (inactive)
RXF 393
  GI50: > 31.6 µM (inactive)
MDA-MB-435
  GI50: 28.2 µM (inactive)
A549
  GI50: 9.14 µM (inactive)
CAKI-1
  GI50: > 31.6 µM (inactive)
OVCAR-8
  GI50: 36.9 µM (inactive)
SNB-19
  GI50: > 100 µM (inactive)
MCF7
  GI50: 24.3 µM (inactive)
OVCAR-3
  GI50: > 50 µM (inactive)
UO-31
  GI50: 5.41 µM (inactive)
NCI-H460
  GI50: 11.6 µM (inactive)
HOP-92
  GI50: > 31.6 µM (inactive)
MDA-MB-231
  GI50: > 31.6 µM (inactive)
IGROV-1
  GI50: > 100 µM (inactive)
SK-MEL-28
  GI50: > 69 µM (inactive)

## Cc1ccc(C2(O)c3ccccc3C(=O)N(C)C2(O)c2ccc(C)cc2)cc1 (stereo not given)
HCT-15
  GI50: 52 µM
M14
  GI50: 62.7 µM (inactive)
MOLT-4
  GI50: 12.8 µM (inactive)
HT-29
  GI50: 46.8 µM (inactive)
HL-60
  GI50: 16.1 µM (inactive)
SF-268
  GI50: 21.2 µM (inactive)
KM12
  GI50: 29.9 µM (inactive)
HCC 2998
  GI50: 79.3 µM (inactive)
EKVX
  GI50: 32.8 µM (inactive)
SF-539
  GI50: 45.1 µM (inactive)
OVCAR-4
  GI50: 18.2 µM (inactive)
SW-620
  GI50: 34.5 µM (inactive)
TK-10
  GI50: > 100 µM (inactive)
DU-145
  GI50: > 100 µM (inactive)
SN12C
  GI50: 58.3 µM (inactive)
Hs-578T
  GI50: 22.6 µM (inactive)
COLO 205
  GI50: > 100 µM (inactive)
PC-3
  GI50: > 100 µM (inactive)
NCI/ADR-RES
  GI50: 39.4 µM (inactive)
SR
  GI50: 2.39 µM (inactive)
SK-MEL-5
  GI50: 33.5 µM (inactive)
BT-549
  GI50: 91.8 µM (inactive)
HCT-116
  GI50: 49.2 µM (inactive)
A498
  GI50: > 100 µM (inactive)
HOP-62
  GI50: 22 µM (inactive)
UACC-62
  GI50: > 100 µM (inactive)
SK-OV-3
  GI50: > 100 µM (inactive)
U-251
  GI50: 17.4 µM (inactive)
CCRF-CEM
  GI50: 15.4 µM (inactive)
SF-295
  GI50: 38.1 µM (inactive)
OVCAR-5
  GI50: > 100 µM (inactive)
NCI-H23
  GI50: > 100 µM (inactive)
SK-MEL-2
  GI50: > 100 µM (inactive)
RPMI-8226
  GI50: > 100 µM (inactive)
786-0
  GI50: 37 µM (inactive)
NCI-H522
  GI50: > 100 µM (inactive)
UACC-257
  GI50: > 100 µM (inactive)
T47D
  GI50: > 100 µM (inactive)
MDA-N
  GI50: > 100 µM (inactive)
Malme-3M
  GI50: > 100 µM (inactive)
LOX IMVI
  GI50: 25.5 µM (inactive)
K562
  GI50: 28.4 µM (inactive)
RXF 393
  GI50: 32.3 µM (inactive)
MDA-MB-435
  GI50: > 100 µM (inactive)
A549
  GI50: > 100 µM (inactive)
CAKI-1
  GI50: 68.1 µM (inactive)
OVCAR-8
  GI50: 25.5 µM (inactive)
SNB-19
  GI50: 21.5 µM (inactive)
MCF7
  GI50: 38.9 µM (inactive)
OVCAR-3
  GI50: > 100 µM (inactive)
UO-31
  GI50: 57.8 µM (inactive)
NCI-H460
  GI50: 22.6 µM (inactive)
HOP-92
  GI50: 18.6 µM (inactive)
MDA-MB-231
  GI50: 28.2 µM (inactive)
IGROV-1
  GI50: > 100 µM (inactive)
SK-MEL-28
  GI50: > 100 µM (inactive)
